Data: patent US6013795A, “Alpha-branched fluoroalkylcarbonyl fluorides and their derivatives” (3M Innovative Properties Company, priority 1996, dated 2000)
“Also recorded” adds a separate entry of the source.

Key:
[1] = hydrolytic stability of esters stirred with concentrated aqueous ammonium hydroxide; assay type: physicochemical; details: 2 days or comparable conditions
Description: The acrylate and methacrylate esters from Examples D1-D11 were fully recoverable with essentially no degradation after being stirred with concentrated aqueous ammonium hydroxide for a period of 2 days.

rats = assay: acute LD50, one-time feeding study of rats; assay type: in vivo, rat; details: for toxicity rating: acute
Description: Acute LD50 measurements for a one-time feeding study of rats were determined over a 21 day period for both the α-branched perfluorocarboxylate salt, C7 F15 CF(CF3)COO^- NH4^+, and its straight chain isomer, CF3 (CF2)8 COO^- NH4^+.

[2] = Chem. Res. Toxicol. 1996, 9, 689-95; cited from earlier work
[3] = thermal degradation in water and characterization of volatile products; assay type: physicochemical
Description: The thermal degradation of an aqueous α-branched perfluoroalkylcarbonyl fluoride and the characterization of the products produced from the degradation were carried out using the following procedure. […] 5.7 g of volatile degradation products were then collected by azeotropic distillation using a Dean-Stark apparatus.
The thermal degradation of C7 F15 CF(CF3)COF (from Example A4) dispersed in water was also carried out by heating the aqueous mixture for several hours at approximately 80° C.

rat = assay: exhaust gas monitoring of dosed rat in uptake desiccator chamber; assay type: in vivo; details: 500 mg/kg
Description: Additional biological testing of C7 F15 CF(CF3)COO^- NH4^+ in rats was conducted using the following test apparatus. An uptake desiccator jar chamber was designed with top and bottom portions, the top portion equipped with an inlet port, an outlet port, oxygen monitor and pressure gage. An oxygen gas tank supplied oxygen into the inlet port, and the oxygen level in the chamber was maintained at a normal ambient level as measured by the oxygen monitor and pressure gage. The outlet port was connected in series with a carbon dioxide scrubber and particulate filter, which in turn was connected to a loop containing a stainless steel bellows pump operating at about 2 L/min. Most of the gas in the loop was recycled into the inlet port, but about 100 mL/min was directed through a secondary loop to a gas chromatograph equipped with a 0.5 mL gas sampling loop.
A rat dosed at 500 mg/kg was placed in the bottom portion of the chamber, the top portion was attached, and the assembled chamber was placed in an ice-filled pan to allow for the condensation of water. The oxygen flow was started, and the exhaust gases were monitored for the presence of CF3 CF=CF(C6 F13) and C7 F15 CFHCF3, aqueous degradation products of C7 F15 CF(CF3)COOH, using known standards of this olefin and hydride in the gas chromatograph. […] After 24 minutes, one slight chromatographic peak was noted, corresponding to the monohydride. After 92 minutes, the peak became noticeably larger and a second peak formed, corresponding to the olefin.

[4] = emulsion polymerization of vinylidene fluoride and hexafluoropropylene with surfactant as emulsifier
Description: The following procedure was used to evaluate C7 F15 CF(CF3)COO^- NH4^+ (from Ex. M1) as an emulsifier to copolymerize hexafluoropropylene (HFP) and vinylidene fluoride.
A 1 gallon, vertically agitated stainless steel reactor with pressure and temperature controls was evacuated and twice purged with nitrogen. Using an isolated vacuum, a solution comprised of 2 g of ammonium persulfate (initiator) and 6 g of dipotassium phosphate dissolved in 2800 g of deionized water was introduced into the reactor. The remaining vacuum on the reactor was vented with nitrogen, and the solution was degassed twice under agitation using alternate vacuum and nitrogen purges. […] The reactor was vented with nitrogen, the solution was agitated very briefly, and the reactor was evacuated of nitrogen and isolated. Then the reactor was vented with hexafluoropropylene monomer to a pressure of approximately 10 psig (1280 torr total pressure), and the temperature of the batch was raised to 72° C. with high agitation. Maintaining the temperature at 72° C., a monomer mixture of 60% (wt) of vinylidene fluoride and 40% (wt) hexafluoropropylene was fed from a tared gas cylinder into the head space of the reactor to maintain a reactor pressure of 130 psig (7480 total pressure). After feeding in about 1 kg of monomer blend (approximately 3.75 hours duration), the introduction of monomer was ceased, the reaction was allowed to cool to room temperature, and any residual unreacted monomer was vented.
The resulting latex polymer was drained from the reactor, and percent solids of the latex was determined to be 25% by weight as measured by drying 10 g of latex in a forced air oven for 16 hours at 105° C.
The reactor body was separated from the reactor head, and a visual inspection of the reactor was made to determine the amount of coagulated polymer in the reactor (the amount should be minimal in a good polymerization reaction). A qualitative rating was assessed, ranging from "none" to "little" to "some."
The latex stability was determined by half filling a 16 oz (450 mL) jar with latex and shaking several hours in the horizontal position, quantitatively rating the latex after shaking using a 3-point scale ranging from 0=very stable to 3=unstable.
Particle size in the latex was determined using 90° scattering on a Coulter sub-micron particle size analyzer.
Degree of foaming was rated using the following qualitative scale: 0=not foamy, 1=slightly foamy, 2=moderately foamy, and 3=very foamy.
In Example P2, the same experiment was run as in Example P1, except that the concentration of C7 F15 CF(CF3)COO^- NH4^+emulsifier was raised to 3500 ppm, the reaction time decreased from 3.75 to 3.5 hours, and the reaction temperature increased from 72° C. to 78° C.
In Comparative Examples P3-P6, the same experiment was run as in Example P1, except that C8 F17 SO2 N(C2 H5)CH2 COO^- K^+ (Fluorad™ FC-128 Fluorochemical Surfactant, available from 3M Company, St. Paul, Minn.), C7 F15 COO^- H4 N^+ (Fluorad™ FC-143 Fluorochemical Surfactant), and Surflon™ S111S Fluorochemical Surfactant (believed to be nominally telomer-based n-C9 F19 COO^- H4 N^+, commercially available from Asahi Glass Corp., Japan) were substituted for C7 F15 CF(CF3)COO^- H4 N^+ emulsifier.
In Comparative Example P7, the same experiment was run as in Example P1, except that no emulsifier was used.

[5] = surface tension of aqueous surfactant solutions and critical micelle concentration (K-12 Processor Tensiometer); assay type: physicochemical; details: deionized water
Description: Critical Micelle Concentration (CMC): The critical micelle concentration is defined as the concentration at which further surface tension is no longer lowered with increasing levels of surfactant. […] Surface tension is then plotted vs. log concentration and the data points are connected. The resulting curve has a nearly horizontal flat portion at concentrations above the CMC and has a negative steep slope at concentrations below the CMC. The CMC is defined as the lowest surfactant concentration in the horizontal flat portion of the curve.
(§1) Then the critical micelle concentration (CMC) was determined for each surfactant.
as §1

[6] = thermal degradation of neat perfluorocarboxylate salts by thermogravimetric analysis; assay type: physicochemical; details: TGA 10° C./min, nitrogen
Description: Thermal degradation measurements were made on a series of neat perfluorocarboxylate salts, including several α-branched open chain structures (Examples N2-N9), a primarily linear open chain structure (Example N10--Fluorad™ FC-143 Fluorochemical Surfactant, commercially available from 3M Company, St. Paul, Minn.), and a closed chain (i.e., cyclic) structure (Example N11- made by the electrochemical fluorination of benzoic acid and hydrolysis in the presence of KOH, as described in U.S. Pat. No. 2,567,011 (Diesslin et al.)).
The perfluorocarboxylate salts were tested using a Perkin-Elmer TGA 7 thermogravimetric analysis apparatus and a salt sample size of approximately 5 mg, a heating rate of 10° C./min, and a nitrogen gas flow rate of 40-45 mL/min. Using the TGA 7 software, the following temperatures were recorded: (1) the onset temperature of decomposition, (2) the temperature at which 50% of the sample weight was lost, and (3) the temperature at which 90% of the sample weight was lost.

[7] = degradation of aqueous salt solution stored at room temperature; assay type: physicochemical; details: same 1 year period
Description: The α-branched open chain ammonium salt compounds from Examples N3-N6 were dissolved in deionized water at a concentration of 5% by weight (0.5 g ammonium salt in 10 mL water) and were stored at room temperature.

C=CC(=O)OCCOC(=O)C(F)(F)C(F)(F)C(F)(F)C(F)(F)C(F)(F)C(F)(F)C(F)(F)F [C7 F15 COOCH2 CH2 OCOCH=CH2]
hydrolytic stability [1]: readily hydrolyzed

O=C(O)C(F)(F)C(F)(F)C(F)(F)C(F)(F)C(F)(F)C(F)(F)C(F)(F)C(F)(F)C(F)(F)F [C9 F19 COO^- NH4^+, reference compound]
toxicity relative to the α-branched isomer (rats; LD50 based): ca. 10 times
toxicity rating (rats): moderately toxic
wasting syndrome (rats; one-time feeding): Wasting syndrome was observed
toxicity [2]: moderately toxic

O=C(F)C(F)(C(F)(F)F)C(F)(F)C(F)(F)C(F)(F)C(F)(F)C(F)(F)C(F)(F)C(F)(F)F (centres unmarked) [Example A1, C7 F15 CF(CF3)COF]
monohydride C7 F15 CFHCF3 in degradation products ([3]; deionized water, refluxed 2 hours): 85%
olefin C6 F13 CF=CFCF3 in degradation products ([3]; deionized water, refluxed 2 hours, cis/trans mixture): 15%
volatile degradation products collected ([3]; from 8 g, water, refluxed 2 hours): 5.7 g
volatile products formed ([3]; water, several hours at approximately 80° C.): The same volatile products were formed

O=C(O)C(F)(C(F)(F)F)C(F)(F)C(F)(F)C(F)(F)C(F)(F)C(F)(F)C(F)(F)C(F)(F)F (centres unmarked) [Example M1, C7 F15 CF(CF3)COOH]
degradation products in aqueous solution ([3]; aqueous solution, similar way): the same monohydride and olefin

O=C(O)C(F)(C(F)(F)F)C(F)(F)C(F)(F)C(F)(F)C(F)(F)C(F)(F)C(F)(F)C(F)(F)F (centres unmarked) [Example M14, C7 F15 CF(CF3)COO^- H4 N^+]
toxicity rating (rats; listed as C7 F15 CF(CF3)COO^- NH4^+): relatively low toxicity; also recorded: only slightly toxic
time after which rats began regaining weight (rats; one-time feeding): 3 days
time of deaths from toxic doses (rats; one-time feeding): 2 to 3 days
wasting syndrome (rats; one-time feeding): No wasting syndrome was noted
post-exposure observation of toxicity (rat): no evidence of toxicity (death) or evidence of wasting syndrome
time to second peak (olefin) in exhaust gas; monohydride peak noticeably larger (rat): 92 min
time to slight peak of monohydride in exhaust gas (rat): 24 min
olefin and monohydride peaks in exhaust gas (rat; after 217 minutes): both peaks became significantly larger
olefin or hydride in exhaust gas (rat; initially): no olefin or hydride were detected
Latex Stability ([4]; 350 ppm emulsifier): 2
Latex Stability ([4]; 3500 ppm emulsifier): 0
CMC ([5]; carboxylate salts, Table 5): 2500 ppm
Surf. Tens. at the CMC ([5]; carboxylate salts, Table 5): 16.5 dynes/cm

O=C(O)C(F)(C(F)(F)F)C(F)(F)C(F)(F)C(F)(F)C(F)(F)C(F)(F)C(F)(F)C(F)(F)C(F)(F)F (centres unmarked) [Example M24, C8 F17 CF(CF3)COO^- K^+]
CMC ([5]; carboxylate salts, Table 5): 3000 ppm
Surf. Tens. at the CMC ([5]; carboxylate salts, Table 5): 16.4 dynes/cm

O=C(O)C(F)(C(F)(F)F)C(F)(F)C(F)(F)C(F)(F)C(F)(F)C(F)(F)C(F)(F)F (centres unmarked) [Example M25, C6 F13 CF(CF3)COO^- Na^+]
CMC ([5]; carboxylate salts, Table 5): 10000 ppm
Surf. Tens. at the CMC ([5]; carboxylate salts, Table 5): 19.8 dynes/cm

O=C(O)C(F)(C(F)(F)F)C(F)(F)C(F)(F)C(F)(F)C(F)(F)C(F)(F)C(F)(F)C(F)(F)F (centres unmarked) [Example M26, C7 F15 CF(CF3)COO^- Na^+]
CMC ([5]; carboxylate salts, Table 5): 3000 ppm
Surf. Tens. at the CMC ([5]; carboxylate salts, Table 5): 19.4 dynes/cm

O=C(O)C(F)(C(F)(F)F)C(F)(F)C(F)(F)C(F)(F)C(F)(F)C(F)(F)C(F)(F)C(F)(F)F (centres unmarked) [Example M27, C7 F15 CF(CF3)COO^- Li^+]
CMC ([5]; carboxylate salts, Table 5): 3500 ppm
Surf. Tens. at the CMC ([5]; carboxylate salts, Table 5): 24.1 dynes/cm

O=C(O)C(F)(C(F)(F)F)C(F)(F)C(F)(F)C(F)(F)C(F)(F)C(F)(F)F (centres unmarked) [Example M28, C5 F11 CF(CF3)COO^- Na^+]
Temperature for 50% loss ([6]; listed as N8): 250 °C

O=C(O)C(F)(C(F)(F)F)C(F)(F)C(F)(F)C(F)(F)C(F)(F)C(F)(F)C(F)(F)C(F)(F)F (centres unmarked) [Example M30, C7 F15 CF(CF3)COO^- 1/2 [H3 N^+ C2 H4 NHC2 H4 N^+ H3]]
CMC ([5]; carboxylate salts, Table 5): 3000 ppm
Surf. Tens. at the CMC ([5]; carboxylate salts, Table 5): 16.2 dynes/cm

O=C(O)C(F)(F)C(F)(F)C(F)(F)C(F)(F)C(F)(F)C(F)(F)C(F)(F)F [FC-143, C7 F15 COO^- H4 N^+]
degradation over 1 year (would show) [7]: no signs of degradation
Latex Stability ([4]; 350 ppm emulsifier): 2
CMC ([5]; carboxylate salts, Table 5): 8000 ppm
Surf. Tens. at the CMC ([5]; carboxylate salts, Table 5): 21.5 dynes/cm

CCN(CC(=O)O)S(=O)(=O)C(F)(F)C(F)(F)C(F)(F)C(F)(F)C(F)(F)C(F)(F)C(F)(F)C(F)(F)F [Fluorad ™ FC-128, C8 F17 SO2 N(C2 H5)CH2 COO^- K^+]
Latex Stability ([4]; 100 ppm emulsifier): 2
Latex Stability ([4]; 350 ppm emulsifier): 0

O=C(O)C1(F)C(F)(F)C(F)(F)C(F)(F)C(F)(F)C1(F)F [U.S. Pat. No. 2,567,011]
Onset temperature of decomposition [6]: 100 °C
Temperature for 50% loss [6]: 110 °C
Temperature for 90% loss [6]: 120 °C

C6 F13 CF(CF3)CON(C3 H6 SO3^-)(CH2)3 N^+ (CH3)2 H [Example K2]
CMC ([5]; Table 3): 500 ppm
Surf. Tens. at the CMC ([5]; Table 3): 20.3 dynes/cm

C8 F17 CF(CF3)CO(OCH2 CH2)16 OCH3 [Example J1]
CMC ([5]; Table 3): 150 ppm
Surf. Tens. at the CMC ([5]; Table 3): 22 dynes/cm
